Measured values as given in patent US20250109118A1, “HETEROCYCLIC COMPOUNDS AS SHP2 INHIBITORS, COMPOSITIONS COMPRISING THE HETEROCYCLIC COMPOUND, AND METHODS OF USE THEREOF” (JS INNOMED HOLDINGS LTD., priority 2021, published 2025).
pIC50: −log10 of the molar value.

System: MiaPaCa-2 cells
Assay: MiaPaCa-2 Cell proliferation assay in 3D culture (CCK8)
Format: cell-based
Details: Homo sapiens, MIA PaCa-2, 120 h; 3D spheroid culture, 5 days with compound, CCK8 readout
Experimental: MiaPaCa-2 Cell proliferation assay in 3D culture. To evaluate cell viability, MiaPaCa-2 cells in logarithmic growth phase were seeded at optimal density and grown in as spheroids. Cells were incubated for 24 hours prior to the addition of different concentrations of the compounds. Cells were cultured with the compounds for 5 days and the cell viability was assessed using CCK8. Briefly, 2500 cells were seeded in round bottom ultra-low attachment 96 well plates (coming) in growth media supplemented with 10% FBS and incubated at 37° C. for 24 hours. The compounds were dissolved in DMSO (Sigma) to obtain 10 mM stock solution. Then the compounds were serially diluted in 3-fold to ten concentrations; 5 μL of the dilution above was transferred to 95 uL culture media to obtain the 50× compound stock solution; 4 uL of the 50× compound above was then transferred to the wells containing cells with 196 μL of the culture medium to obtain the final 1× concentration. The final concentration of DMSO was 0.1%. Spheroid cells were incubated in compounds for 5 days. Then 20 μL WST-8 solution (DOJINDO, Cell Counting KIT-8) was added to each well. The plates were further incubated at 37° C. for 1.5 hours, and then absorbance at 450 nm was measured using a microplate reader. Each compound was tested in triplicate and the IC50 value was calculated using GraphPad Prism.
The IC50 values of for Compounds disclosed are listed in Table 2, A: ≤500 nM; B: >500 nM and ≤5 μM; C: >5 μM and ≤50 μM; and D: >50 μM.

SMILES	pIC50
C[C@@H]1OCC2(CCN(c3cnc(Sc4cncc(NC(=O)NS(=O)(=O)c5ccccc5)c4Cl)cn3)CC2)[C@@H]1N [Example 60, N-((5-((5-((3S,4S)-4-amino-3-methyl-2-oxa-8-azaspiro[4.5]decan-8-yl)pyrazin-2-yl)thio)-4-chloropyridin-3-yl)carbamoyl)benzenesulfonamide]	5.30 to 6.30
C[C@@H]1OCC2(CCN(c3cnc(Sc4cccc(NC(=O)NS(=O)(=O)C5CCCCC5)c4Cl)cn3)CC2)[C@@H]1N [Example 69, N-((3-((5-((3S,4S)-4-amino-3-methyl-2-oxa-8-azaspiro[4.5]decan-8-yl)pyrazin-2-yl)thio)-2-chlorophenyl)carbamoyl)cyclohexanesulfonamide]	≥ 6.30
C[C@@H]1OCC2(CCN(c3cnc(Sc4cccc(NC(=O)NS(=O)(=O)C5CCN(C)CC5)c4Cl)cn3)CC2)[C@@H]1N [Example 70, N-((3-((5-((3S,4S)-4-amino-3-methyl-2-oxa-8-azaspiro[4.5]decan-8-yl)pyrazin-2-yl)thio)-2-chlorophenyl)carbamoyl)-1-methylpiperidine-4-sulfonamide]	≥ 6.30
C[C@@H]1OCC2(CCN(c3cnc(Sc4ccnc(C(=O)NS(=O)(=O)c5ccccc5)c4Cl)cn3)CC2)[C@@H]1N [Example 71, 4-((5-((3S,4S)-4-amino-3-methyl-2-oxa-8-azaspiro[4.5]decan-8-yl)pyrazin-2-yl)thio)-3-chloro-N-(phenylsulfonyl)picolinamide]	5.30 to 6.30
C[C@@H]1OCC2(CCN(c3cnc(Sc4cccc(NC(=O)NS(=O)(=O)c5ccncc5)c4Cl)cn3)CC2)[C@@H]1N [Example 72, N-((3-((5-((3S,4S)-4-amino-3-methyl-2-oxa-8-azaspiro[4.5]decan-8-yl)pyrazin-2-yl)thio)-2-chlorophenyl)carbamoyl)pyridine-4-sulfonamide]	≥ 6.30
C[C@@H]1OCC2(CCN(c3cnc(Sc4cccc(NC(=O)NS(=O)(=O)C5CCCC5)c4Cl)cn3)CC2)[C@@H]1N [Example 73, N-((3-((5-((3S,4S)-4-amino-3-methyl-2-oxa-8-azaspiro[4.5]decan-8-yl)pyrazin-2-yl)thio)-2-chlorophenyl)carbamoyl)cyclopentanesulfonamide]	≥ 6.30
C[C@@H]1OCC2(CCN(c3cnc(Sc4cccc(NC(=O)NS(=O)(=O)N5CCOCC5)c4Cl)cn3)CC2)[C@@H]1N [Example 74, N-((3-((5-((3S,4S)-4-amino-3-methyl-2-oxa-8-azaspiro[4.5]decan-8-yl)pyrazin-2-yl)thio)-2-chlorophenyl)carbamoyl)morpholine-4-sulfonamide]	≥ 6.30
C[C@@H]1OCC2(CCN(c3cnc(Sc4cccc(NC(=O)NS(=O)(=O)N5CCCCC5)c4Cl)cn3)CC2)[C@@H]1N [Example 75, N-((3-((5-((3S,4S)-4-amino-3-methyl-2-oxa-8-azaspiro[4.5]decan-8-yl)pyrazin-2-yl)thio)-2-chlorophenyl)carbamoyl)piperidine-1-sulfonamide]	≥ 6.30
Cc1noc(C)c1S(=O)(=O)NC(=O)Nc1nccc(Sc2cnc(N3CCC4(CC3)CO[C@@H](C)[C@H]4N)cn2)c1Cl [Example 76, N-((4-((5-((3S,4S)-4-amino-3-methyl-2-oxa-8-azaspiro[4.5]decan-8-yl)pyrazin-2-yl)thio)-3-chloropyridin-2-yl)carbamoyl)-3,5-dimethylisoxazole-4-sulfonamide]	≥ 6.30
C[C@@H]1OCC2(CCN(c3cnc(Sc4ccnc(NC(=O)NS(C)(=O)=O)c4Cl)cn3)CC2)[C@@H]1N [Example 77, N-((4-((5-((3S,4S)-4-amino-3-methyl-2-oxa-8-azaspiro[4.5]decan-8-yl)pyrazin-2-yl)thio)-3-chloropyridin-2-yl)carbamoyl)methanesulfonamide]	≥ 6.30

Results, then the molecule that gave them:

pIC50	SMILES
≥ 6.30	COc1ccc(S(=O)(=O)NC(=O)Nc2nccc(Sc3cnc(N4CCC5(CC4)CO[C@@H](C)[C@H]5N)cn3)c2Cl)cn1 [Example 54, N-((4-((5-((3S,4S)-4-amino-3-methyl-2-oxa-8-azaspiro[4.5]decan-8-yl)pyrazin-2-yl)thio)-3-chloropyridin-2-yl)carbamoyl)-6-methoxypyridine-3-sulfonamide]
≥ 6.30	C[C@@H]1OCC2(CCN(c3cnc(Sc4ccnc(NC(=O)NS(=O)(=O)c5cnn(C)c5)c4Cl)cn3)CC2)[C@@H]1N [Example 55, N-((4-((5-((3S,4S)-4-amino-3-methyl-2-oxa-8-azaspiro[4.5]decan-8-yl)pyrazin-2-yl)thio)-3-chloropyridin-2-yl)carbamoyl)-1-methyl-1H-pyrazole-4-sulfonamide]
≥ 6.30	C[C@@H]1OCC2(CCN(c3cnc(Sc4ccnc(NC(=O)NS(=O)(=O)c5ccccc5)c4F)cn3)CC2)[C@@H]1N [Example 56, N-((4-((5-((3S,4S)-4-amino-3-methyl-2-oxa-8-azaspiro[4.5]decan-8-yl)pyrazin-2-yl)thio)-3-fluoropyridin-2-yl)carbamoyl)benzenesulfonamide]
≥ 6.30	C[C@@H]1OCC2(CCN(c3cnc(Sc4ccnc(NC(=O)NS(=O)(=O)C5CC5)c4Cl)cn3)CC2)[C@@H]1N [Example 57, N-((4-((5-((3S,4S)-4-amino-3-methyl-2-oxa-8-azaspiro[4.5]decan-8-yl)pyrazin-2-yl)thio)-3-chloropyridin-2-yl)carbamoyl)cyclopropanesulfonamide]
≥ 6.30	C[C@@H]1OCC2(CCN(c3cnc(Sc4ccnc(NC(=O)NS(=O)(=O)c5cncc(F)c5)c4Cl)cn3)CC2)[C@@H]1N [Example 58, N-((4-((5-((3S,4S)-4-amino-3-methyl-2-oxa-8-azaspiro[4.5]decan-8-yl)pyrazin-2-yl)thio)-3-chloropyridin-2-yl)carbamoyl)-5-fluoropyridine-3-sulfonamide]
≥ 6.30	Cc1nc(N2CCC3(CC2)CO[C@@H](C)[C@H]3N)c(CO)nc1Sc1ccnc(NC(=O)NS(=O)(=O)c2ccccc2)c1Cl [Example 59, N-((4-((5-((3S,4S)-4-amino-3-methyl-2-oxa-8-azaspiro[4.5]decan-8-yl)-6-(hydroxymethyl)-3-methylpyrazin-2-yl)thio)-3-chloropyridin-2-yl)carbamoyl)benzenesulfonamide]
≥ 6.30	C[C@@H]1OCC2(CCN(c3cnc(Sc4cccc(NC(=O)NS(=O)(=O)c5cccnc5)c4Cl)cn3)CC2)[C@@H]1N [Example 61, N-((3-((5-((3S,4S)-4-amino-3-methyl-2-oxa-8-azaspiro[4.5]decan-8-yl)pyrazin-2-yl)thio)-2-chlorophenyl)carbamoyl)pyridine-3-sulfonamide]
≥ 6.30	C[C@@H]1OCC2(CCN(c3cnc(Sc4cccc(NC(=O)NS(=O)(=O)c5cccc(F)c5)c4Cl)cn3)CC2)[C@@H]1N [Example 62, N-((3-((5-((3S,4S)-4-amino-3-methyl-2-oxa-8-azaspiro[4.5]decan-8-yl)pyrazin-2-yl)thio)-2-chlorophenyl)carbamoyl)-3-fluorobenzenesulfonamide]
≥ 6.30	C[C@@H]1OCC2(CCN(c3cnc(Sc4cccc(NC(=O)NS(=O)(=O)c5ccccn5)c4Cl)cn3)CC2)[C@@H]1N [Example 63, N-((3-((5-((3S,4S)-4-amino-3-methyl-2-oxa-8-azaspiro[4.5]decan-8-yl)pyrazin-2-yl)thio)-2-chlorophenyl)carbamoyl)pyridine-2-sulfonamide]
≥ 6.30	COc1ccc(S(=O)(=O)NC(=O)Nc2cccc(Sc3cnc(N4CCC5(CC4)CO[C@@H](C)[C@H]5N)cn3)c2Cl)cn1 [Example 64, N-((3-((5-((3S,4S)-4-amino-3-methyl-2-oxa-8-azaspiro[4.5]decan-8-yl)pyrazin-2-yl)thio)-2-chlorophenyl)carbamoyl)-6-methoxypyridine-3-sulfonamide]
≥ 6.30	Cc1noc(C)c1S(=O)(=O)NC(=O)Nc1cccc(Sc2cnc(N3CCC4(CC3)CO[C@@H](C)[C@H]4N)cn2)c1Cl [Example 65, N-((3-((5-((3S,4S)-4-amino-3-methyl-2-oxa-8-azaspiro[4.5]decan-8-yl)pyrazin-2-yl)thio)-2-chlorophenyl)carbamoyl)-3,5-dimethylisoxazole-4-sulfonamide]
≥ 6.30	C[C@@H]1OCC2(CCN(c3cnc(Sc4cccc(NC(=O)NS(=O)(=O)C5CC5)c4Cl)cn3)CC2)[C@@H]1N [Example 66, N-((3-((5-((3S,4S)-4-amino-3-methyl-2-oxa-8-azaspiro[4.5]decan-8-yl)pyrazin-2-yl)thio)-2-chlorophenyl)carbamoyl)cyclopropanesulfonamide]
≥ 6.30	N[C@@H]1c2cnccc2CC12CCN(c1cnc(Sc3cccc(NC(=O)NS(=O)(=O)c4ccccc4)c3Cl)cn1)CC2 [Example 67, (S)—N-((3-((5-(7-amino-5,7-dihydrospiro[cyclopenta[c]pyridine-6,4′-piperidin]-1′-yl)pyrazin-2-yl)thio)-2-chlorophenyl)carbamoyl)benzenesulfonamide]
≥ 6.30	C[C@@H]1OCC2(CCN(c3cnc(Sc4cccc(NC(=O)NS(=O)(=O)C5CCOCC5)c4Cl)cn3)CC2)[C@@H]1N [Example 68, N-((3-((5-((3S,4S)-4-amino-3-methyl-2-oxa-8-azaspiro[4.5]decan-8-yl)pyrazin-2-yl)thio)-2-chlorophenyl)carbamoyl)tetrahydro-2H-pyran-4-sulfonamide]
